Where “and” joins values, the source holds several entries; their conditions need not be identical. Equal entries are not always repeated. Where two headings read alike, the source gives them in different places.
Test system: L. major lysate proteins
Test: Multitargeted bead mixture chemoproteomics, single concentration competition, proteome-wide
Type: binding
Conditions: for fold change: vehicle control = 1

## Nc1nc2[nH]cc(CCc3ccc(C(=O)N[C@@H](CCC(=O)O)C(=O)O)cc3)c2c(=O)[nH]1 [PTX, pemetrexed]
  fold change relative to vehicle control: 1.01 and 1.04 and 0.91
  fold change vs vehicle control: 1.03 and 1.04 and 1
Protein CLI00016468.1 KIN[…] PROTEIN-11
  fold change vs vehicle control: 0.68
Protein LINJ.03.0240 RIBOSOMAL PROTEIN L38, PUTATIVE
  fold change vs vehicle control: 1.03
Protein LINJ.11.0780 40S RIBOSOMAL PROTEIN S21, PUTATIVE
  fold change vs vehicle control: 0.99
Protein LINJ.11.0960 40S RIBOSOMAL PROTEIN S5
  fold change: 1.07
Protein LINJ.13.0990 […] SUBUNIT 2, PUTATIVE
  fold change vs vehicle control: 1.06
Protein LINJ.15.0330 RIBONUCLEOPROTEIN P18, MIT[…], PUTATIVE
  fold change vs vehicle control: 1.08
Protein LINJ.19.0090 FIBRILLARIN, PUTATIVE
  fold change: 0.88
Protein LINJ.21.1790 40S RIBOSOMAL PROTEIN S11, PUTATIVE
  fold change: 1.08
Protein LINJ.23.0860, 3-KETOACYL-COA THIOLASE, PUTATIVE
  fold change relative to vehicle control: 1.16
Protein LINJ.24.2300, 60S RIBOSOMAL PROTEIN L12, PUTATIVE
  fold change relative to vehicle control: 0.96
Protein LINJ.25.2230 SUCCINYL-COA […] SUBUNIT, PUTATIVE
  fold change vs vehicle control: 0.97
Protein LINJ.26.1630 40S RIBOSOMAL PROTEIN S33, PUTATIVE
  fold change vs vehicle control: 0.99
Protein LINJ.28.1100 RIBOSOMAL PROTEIN S20, PUTATIVE
  fold change vs vehicle control: 0.99
Protein LINJ.28.1940, R[…] A, 51KDA SUBUNIT, PUTATIVE
  fold change relative to vehicle control: 0.99
Protein LINJ.28.2280 DYNEIN LIGHT CHAIN LC6, FLAGELLAR OUTER ARM, PUTATIVE
  fold change: 0.87
Protein LINJ.28.2870 PROTEIN PHOSPHATASE 4 CATALYTIC SUBUNIT, PUTATIVE
  fold change: 0.97
Protein LINJ.31.1600, CYTOCHROME C OXIDASE VIII (COX VIII), PUTATIVE
  fold change relative to vehicle control: 0.89
Protein LINJ.33.1730, CYCLOPHILIN 4, PUTATIVE
  fold change relative to vehicle control: 1.47
Protein LINJ.34.0670 […]-ATP-ASE SUBUNIT 11, PUTATIVE,19S […]
  fold change vs vehicle control: 0.91
Protein LINJ.36.0780 PROTEIN KINASE, PUTATIVE,MITOGEN-ACTIVATED PROTEIN KINASE, PUTATIVE
  fold change vs vehicle control: 0.92
Protein LINJ.36.3960, BASIC TRANSCRIPTION FACTOR 3A, PUTATIVE
  fold change relative to vehicle control: 1.33
Protein LINJ.36.4080, HY[…], CONSERVED
  fold change relative to vehicle control: 0.93
Protein LINJ.36.4180 HS1VU COMPLEX P[…]-LIKE
  fold change: 0.92
Protein LINJ.[…] LONG-CHAIN-FATTY-ACID-COA LIGASE, PUTATIVE
  fold change vs vehicle control: 0.9
Protein LMJF.01.0570 TRICARBOXYLATE CARRIER, PUTATIVE
  fold change: 0.96
Protein LMJF.03.0200, DELTA-1-PYRROLINE-5-CARBOXYLATE DEHYDROGENASE, PUTATIVE
  fold change relative to vehicle control: 1.03
Protein LMJF.03.0230 LONG CHAIN FATTY ACYL COA SYNTHETASE, PUTATIVE
  fold change: 0.99
Protein LMJF.03.0980 […] 2 ALPHA SUBUNIT, PUTATIVE
  fold change: 0.97
Protein LMJF.04.0630 HY[…], CONSERVED
  fold change vs vehicle control: 0.99
Protein LMJF.04.1230 actin
  fold change vs vehicle control: 1
Protein LMJF.05.0100 PHOSPHOPROTEIN PHOSPHATASE, PUTATIVE
  fold change: 0.71
Protein LMJF.05.0280 PROTEIN TYROSINE PHOSPHATASE, PUTATIVE
  fold change: 0.88
Protein LMJF.05.0510 ATPASE ALPHA SUBUNIT
  fold change: 1.05
Protein LMJF.05.1040 STOMATIN-LIKE PROTEIN
  fold change: 0.94
Protein LMJF.06.0650 […], PUTATIVE
  fold change: 0.89
Protein LMJF.07.0700 TOPOISOMERASE-RELATED FUNCTION PROTEIN-LIKE PROTEIN
  fold change vs vehicle control: 0.73
Protein LMJF.07.1000 RNA BINDING PROTEIN-LIKE PROTEIN
  fold change: 0.93
Protein LMJF.07.1140, PEPTIDE […] REDUCTASE-LIKE
  fold change relative to vehicle control: 1.13
Protein LMJF.08.0510 RIBOSE-PHOSPHATE PYROPHOSPHOKINASE, PUTATIVE
  fold change: 0.89
Protein LMJF.08.0550 T[…]-LIKE PROTEIN
  fold change vs vehicle control: 0.98
Protein LMJF.08.1030, cathepsin L-like protease
  fold change relative to vehicle control: 1.04
Protein LMJF.08.1100 HY[…], CONSERVED
  fold change vs vehicle control: 0.92
Protein LMJF.09.1010 HY[…], CONSERVED
  fold change vs vehicle control: 0.89
Protein LMJF.09.1120, MIT[…] BINDING PROTEIN 2,MRP2, GBP25
  fold change relative to vehicle control: 1
Protein LMJF.09.1260 HY[…], CONSERVED
  fold change vs vehicle control: 0.97
Protein LMJF.10.0210 NUCLEOLAR PROTEIN, PUTATIVE
  fold change: 0.99
Protein LMJF.10.0310 PROTEIN TRANSPORT PROTEIN SEC23, PUTATIVE
  fold change vs vehicle control: 1.04
Protein LMJF.11.0590 3-METHYLCROTONOYL-COA C[…] SUBUNIT, PUTATIVE
  fold change: 0.95
Protein LMJF.11.0630, AMINOPEPTIDASE, PUTATIVE,METALLO-PEPTIDASE, CLAN MF, FAMILY M17
  fold change relative to vehicle control: 1.06
Protein LMJF.11.1050 PRETRA[…], ALPHA SUBUNIT, PUTATIVE,SEC61-LIKE (PRETRA[…]) PROTEIN, PUTATIVE
  fold change vs vehicle control: 0.96
Protein LMJF.11.1160 PROTEIN TRANSPORT PROTEIN SEC31, PUTATIVE
  fold change: 0.76
Protein LMJF.12.0030 […]-1 SUBUNIT, PUTATIVE
  fold change: 0.94
Protein LMJF.12.0210 […] SUBUNITTCC1L8 3, PUTATIVE
  fold change vs vehicle control: 0.96
Protein LMJF.12.0530, GLUCOSE-6-PHOSPHATE ISOMERASE
  fold change relative to vehicle control: 1.26
Protein LMJF.12.0630 ALANINE AMINOTRANSFERASE
  fold change: 0.86
Protein LMJF.13.1230 40S RIBOSOMAL PROTEIN S4, PUTATIVE
  fold change vs vehicle control: 1.13
Protein LMJF.14.0310 […] 3 SUBUNIT, PUTATIVE
  fold change vs vehicle control: 1.03
Protein LMJF.14.0660 FATTY ACID ELONGASE, PUTATIVE
  fold change: 0.92
Protein LMJF.14.0670 FATTY ACID ELONGASE, PUTATIVE
  fold change: 0.87
Protein LMJF.14.0680 FATTY ACID ELONGASE, PUTATIVE
  fold change vs vehicle control: 1.08
Protein LMJF.14.0990 ADP/ATP MIT[…]-LIKE PROTEIN
  fold change: 1.14
Protein LMJF.14.1160 ENOLASE
  fold change vs vehicle control: 1.01
Protein LMJF.14.1440 HY[…], CONSERVED (cytoskeleton associated protein, putative)
  fold change: 0.74

Source: publication PMC6199744, “Development of Chemical Proteomics for the Folateome and Analysis of the Kinetoplastid Folateome” (ACS Infectious Diseases, 2018)
